In patent publication US20090088461A1, “Methods of Treating or Preventing Cardiac Disease Associated With a High Fat Diet” (Synvista Therapeutics, Inc., priority 2007, published 2009):
“And” between values parts separate entries of the source, which are not always exact repeats. Identical values can stand only once. Like-named read-outs stand apart in the source and are kept apart here.

Columns and labels:
[1] = target: T1, AGE-BSA previously crosslinked to the collagen (Bos taurus, UniProt P02769); assay: Cross-Link Breaking Assay (sandwich enzyme immunoassay); type: biochemical; settings: for Breaking Anti-AGE: anti-AGE antibody; for Breaking Anti-BSA: anti-BSA antibody
T1 construct: Bovine Serum Albumin (Type V), (BSA) Calbiochem; purchased Calbiochem (BSA Type V); Collaborative Biomedical Products (Biocoat collagen plates)
T1 sequence (P02769 25-607): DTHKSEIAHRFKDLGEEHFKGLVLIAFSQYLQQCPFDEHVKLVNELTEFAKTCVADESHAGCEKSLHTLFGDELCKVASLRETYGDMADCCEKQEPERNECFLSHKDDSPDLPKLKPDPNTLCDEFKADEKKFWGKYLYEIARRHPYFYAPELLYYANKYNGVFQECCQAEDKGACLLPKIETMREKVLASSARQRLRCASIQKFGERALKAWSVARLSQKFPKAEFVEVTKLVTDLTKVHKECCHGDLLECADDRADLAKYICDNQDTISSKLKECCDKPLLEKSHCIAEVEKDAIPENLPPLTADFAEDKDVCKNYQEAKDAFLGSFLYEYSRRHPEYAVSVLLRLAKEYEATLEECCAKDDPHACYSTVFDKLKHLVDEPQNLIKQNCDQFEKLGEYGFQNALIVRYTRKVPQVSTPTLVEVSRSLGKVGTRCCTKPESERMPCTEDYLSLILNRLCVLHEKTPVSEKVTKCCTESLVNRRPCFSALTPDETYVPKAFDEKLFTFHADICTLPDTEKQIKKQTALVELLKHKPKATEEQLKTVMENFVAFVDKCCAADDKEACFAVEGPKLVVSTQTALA
T1 sequence (P02454 152-1207 partner limits assumed): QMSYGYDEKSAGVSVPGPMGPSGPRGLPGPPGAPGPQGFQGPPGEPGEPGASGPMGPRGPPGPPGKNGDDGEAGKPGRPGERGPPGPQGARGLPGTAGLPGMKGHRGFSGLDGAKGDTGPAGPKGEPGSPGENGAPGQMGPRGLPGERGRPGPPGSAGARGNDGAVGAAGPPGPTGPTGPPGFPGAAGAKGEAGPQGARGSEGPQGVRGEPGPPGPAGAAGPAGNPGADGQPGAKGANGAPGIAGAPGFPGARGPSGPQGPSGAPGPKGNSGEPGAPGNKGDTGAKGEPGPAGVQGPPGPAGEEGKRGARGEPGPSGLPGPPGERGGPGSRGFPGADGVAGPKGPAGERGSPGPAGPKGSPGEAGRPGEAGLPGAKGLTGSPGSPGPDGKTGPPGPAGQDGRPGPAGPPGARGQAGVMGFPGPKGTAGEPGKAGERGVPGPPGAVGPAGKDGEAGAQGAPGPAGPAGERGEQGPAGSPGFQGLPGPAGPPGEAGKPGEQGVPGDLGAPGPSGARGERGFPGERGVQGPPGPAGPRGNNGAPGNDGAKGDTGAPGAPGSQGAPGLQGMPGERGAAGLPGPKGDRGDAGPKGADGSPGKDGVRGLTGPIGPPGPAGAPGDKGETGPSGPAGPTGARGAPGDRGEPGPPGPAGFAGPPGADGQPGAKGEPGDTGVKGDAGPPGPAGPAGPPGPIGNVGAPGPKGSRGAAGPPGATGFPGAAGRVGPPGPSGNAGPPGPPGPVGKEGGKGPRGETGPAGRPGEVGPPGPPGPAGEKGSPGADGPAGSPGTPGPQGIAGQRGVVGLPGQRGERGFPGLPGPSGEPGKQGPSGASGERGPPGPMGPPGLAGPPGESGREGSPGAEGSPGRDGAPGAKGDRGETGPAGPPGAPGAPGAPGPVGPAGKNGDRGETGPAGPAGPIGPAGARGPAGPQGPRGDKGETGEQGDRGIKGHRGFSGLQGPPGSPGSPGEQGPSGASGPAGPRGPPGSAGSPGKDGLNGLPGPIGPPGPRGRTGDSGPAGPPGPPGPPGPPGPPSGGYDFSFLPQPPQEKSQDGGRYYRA
T1 sequence (P02466 86-1125 partner limits assumed): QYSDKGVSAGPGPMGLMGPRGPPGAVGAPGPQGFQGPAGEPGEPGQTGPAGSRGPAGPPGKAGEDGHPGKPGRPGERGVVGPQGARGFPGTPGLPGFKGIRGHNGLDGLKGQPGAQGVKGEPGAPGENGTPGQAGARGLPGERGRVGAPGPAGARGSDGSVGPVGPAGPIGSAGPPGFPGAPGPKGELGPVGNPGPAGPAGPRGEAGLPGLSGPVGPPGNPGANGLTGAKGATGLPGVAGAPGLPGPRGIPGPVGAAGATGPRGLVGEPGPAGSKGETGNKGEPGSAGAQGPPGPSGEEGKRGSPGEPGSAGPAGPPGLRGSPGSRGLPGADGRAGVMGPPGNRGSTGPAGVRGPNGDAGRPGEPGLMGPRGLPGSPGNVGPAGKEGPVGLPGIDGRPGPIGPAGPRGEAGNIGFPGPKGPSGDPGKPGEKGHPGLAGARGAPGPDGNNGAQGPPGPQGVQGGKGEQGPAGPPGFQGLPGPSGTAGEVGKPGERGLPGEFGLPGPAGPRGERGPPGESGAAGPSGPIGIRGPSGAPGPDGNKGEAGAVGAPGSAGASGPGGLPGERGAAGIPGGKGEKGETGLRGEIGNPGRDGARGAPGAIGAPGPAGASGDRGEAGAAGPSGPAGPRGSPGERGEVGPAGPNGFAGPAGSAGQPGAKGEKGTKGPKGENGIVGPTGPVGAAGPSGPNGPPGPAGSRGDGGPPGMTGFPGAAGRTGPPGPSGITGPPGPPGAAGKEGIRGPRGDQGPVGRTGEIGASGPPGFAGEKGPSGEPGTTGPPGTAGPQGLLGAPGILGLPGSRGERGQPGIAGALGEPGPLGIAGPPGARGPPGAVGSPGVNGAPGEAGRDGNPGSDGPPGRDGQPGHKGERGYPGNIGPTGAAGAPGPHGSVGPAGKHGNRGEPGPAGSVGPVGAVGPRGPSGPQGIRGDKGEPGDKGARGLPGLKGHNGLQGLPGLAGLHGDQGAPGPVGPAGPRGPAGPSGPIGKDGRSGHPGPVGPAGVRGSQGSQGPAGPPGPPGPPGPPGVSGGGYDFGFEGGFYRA
Experimental: The present invention also involves a novel sandwich enzyme immunoassay used to ascertain the ability of test compounds to “break” or reverse already formed advanced glycosylation endproducts by detecting the breaking of AGE (Advanced glycosylation endproduct) moieties from AGE-crosslinked protein. This assay comprises:
a) incubation of AGE-modified bovine serum albumin (AGE BSA) on collagen-coated wells of microtiter plates for a period of 2-6 hours' at a temperature of 37° C.
b) washing of the wells with PBS-Tween;
c) application of the test compounds to the washed wells of step b;
d) incubation of the test compounds applied to the washed wells for an additional 12-24 hours at a temperature of about 37° C.; and
e) detection of the AGE-breaking using an antibody raised against AGE-ribonuclease or cross-link breaking with an antibody against BSA.
In order to ascertain the ability of the compounds of the instant invention to “break” or reverse already formed advanced glycosylation endproducts, a novel sandwich enzyme immunoassay was developed which detects breaking of AGE (Advanced glycosylation endproduct) moieties from AGE-crosslinked protein. The assay utilizes collagen-coated 96 well microtiter plates that are obtained commercially. […] Following an incubation period of 16 hours (37° C.) cross-link-breaking is detected using an antibody raised against AGE-ribonuclease or with an antibody against BSA. […] Details of the assay are as follows:
1. AGE-BSA stock solutions were prepared as follows. Sodium phosphate buffer (0.4 M) was prepared by dissolving 6 grams of monobasic sodium phosphate in 100 ml of distilled water, 7 grams of dibasic sodium phosphate (0.4 M) in 100 ml of distilled water and adjusting the pH of the dibasic solution to 7.4 with the monobasic solution. Sodium azide (0.02 grams) was added per 100 ml volume to inhibit bacterial growth. The BSA solution was prepared as follows: 400 mg of Type V BSA (bovine serum albumin) was added for each ml of sodium phosphate buffer (above). A 400 mM glucose solution was prepared by dissolving 7.2 grams of dextrose in 100 ml of sodium phosphate buffer (above). The BSA and glucose solutions were mixed 1:1 and incubated at 37° C. for 12 weeks. The pH of the incubation mixture was monitored weekly and adjusted to pH 7.4 if necessary. After 12 weeks, the AGE-BSA solution was dialyzed against PBS for 48 hours with four buffer changes, each at a 1:500 ratio of solution to dialysis buffer. Protein concentration was determined by the micro-Lowry method. The AGE-BSA stock solution was aliquoted and stored at −20° C.
2. Working solutions for crosslinking and breaking studies were prepared as follows. Test compounds were dissolved in PBS and the pH was adjusted to pH 7.4 if necessary. AGE-BSA stock solution was diluted in PBS to measure maximum crosslinking and in the inhibitor solution for testing inhibitory activity of compounds. The concentration of AGE-BSA necessary to achieve the optimum sensitivity was determined by initial titration of each lot of AGE-BSA.
3. Wash buffer (“PBS-Tween”) was, prepared as follows. PBS was prepared by dissolving the following salts in one liter of distilled water: NaCl, 8 grams; KCl, 0.2 gram, KH2PO4. […] Tween-20 was added to a final concentration of 0.05% (vol/vol).
4. Substrates for detection of secondary antibody binding were prepared by diluting the HRP substrate buffer 1:10 in distilled water and mixing with ABTS chromogen 1:50 just prior to use.
1. Biocoat plates were blocked with 300 μl of “Superbloc”. Plates were blocked for one hour at room temperature and were washed with PBS-Tween three times with the Dynatech platewasher before addition of test reagents.
2. Each experiment was set up in the following manner. The first three wells of the Biocoat plate were used for the reagent blank. Fifty microliters of solutions AGE-BSA were added to test wells in triplicate and only PBS in blank wells.

[2] = target: cross-linking of glycated bovine serum albumin (AGE-BSA) to the rat tail tendon collagen-coated 96-well plate (Bos taurus, UniProt P02769); assay: Cross-Linking Inhibition Assay; settings: for inhibition at 10000 µM: read-out: Relative Cross-link Inhibition (at 10 mM)
Chain of cross-linking of glycated bovine serum albumin (AGE-BSA) to the rat tail tendon collagen-coated 96-well plate (P02769 25-607): as the sequence (P02769 25-607) above
Experimental: The following method was used to evaluate the ability of the compounds of the present invention to inhibit the cross-linking of glycated bovine serum albumin (AGE-BSA) to the rat tail tendon collagen-coated 96-well plate.
The blocking solution was removed from the wells by, washing the plate twice with PBS-'Tween 20 solution (0.05% Tween 20) using a NUNq-multiprobe or Dynatech ELISA-plate washer. Cross-linking of AGE-BSA (1 to 10 mg per well depending on the batch of AGE-BSA) to rat tail tendon collagen coated plate was performed with and without the testing ‘compound dissolved in PBS buffer at pH 7.4 at the desired concentrations by the, addition of 50 μl each of the AGE-BSA diluted in PBS or in the solution of test compound at 37° C. for 4 hours.
Unbrowned BSA in PBS buffer with or without testing compound were added to the separate wells as the blanks. The un-cross-linked AGE-BSA was then removed by washing the wells three times with PBS-Tween buffer. The amount of AGE-BSA cross-linked to the tail tendon collagen-coated plate was then quantitated using a polyclonal antibody raised against AGE-RNase. After a one-hour incubation period, AGE antibody was removed by washing 4 times with PBS-Tween.
The bound AGE antibody was then detected with the addition of horseradish peroxidase-conjugated secondary antibody—goat anti-rabbit immunoglobulin and incubation for 30 minutes. […] The reaction was allowed for an additional 15 minutes and the absorbance was read at 410 nm in a Dynatech plate reader.

CCOC(=O)c1ccc(NC(=O)C[n+]2csc(CCO)c2C)cc1.[Br-] [3-(2-4′-carbethoxyanilino)-2-oxoethyl]-4-methyl-5-(2′-hydroxyethyl)-thiazolium bromide]
Breaking Anti-AGE ([1]; at 10 mM): 48% | Breaking Anti-BSA ([1]; at 10 mM): 57% | Relative Cross-link Inhibition ([2]; 1 mM): 8.8% (1 mm)

COC(=O)C[n+]1csc(C)c1.[Br-] [3-(2-methoxy-2-oxoethyl)-5-methyl-thiazolium bromide]
Breaking Anti-AGE ([1]; at 30 mM): 72% | Breaking Anti-BSA ([1]; at 30 mM): 27% | IC50 [2]: 3200 µM

NC(=O)C[n+]1csc2ccccc21.[Br-] [3-(2-amino-2-oxoethyl)-benzothiazolium bromide]
Breaking Anti-AGE ([1]; concentration not given): 77% | Breaking Anti-BSA ([1]; concentration not given): 65% | IC50 ([1]; detection with anti-AGE antibody, read-out: IC50 (mM) Anti-AGE): 0.4 mM | IC50 [2]: 20 µM

COC(=O)C[n+]1csc(CCO)c1C [3-(2-methoxy-2-oxoethyl)-4-methyl-5-(2-hydroxyethyl)-thiazolium bromide]
inhibition at 10000 µM [2]: 38%

Cc1c(CCO)sc[n+]1CC(=O)c1ccc2c(c1)OCCO2.[Br-] [3 (2-(1′,4′-benzodioxan-6-yl)-2-oxoethyl]-4-methyl-5-(2′-hydroxyethyl)-thiazolium bromide]
Breaking Anti-AGE ([1]; at 3 mM): 11% | Breaking Anti-BSA ([1]; at 3 mM): 21% | Relative Cross-link Inhibition (at 10 mM) ([2]; at 10 mM): 13%

COC(=O)C[n+]1ccsc1.[Br-] [3-(2-Methoxy-2-Oxoethyl)-Thiazolium Bromide]
Breaking Anti-AGE ([1]; at 30 mM): 38% | Breaking Anti-BSA ([1]; at 30 mM): 41% | IC50 [2]: 250 µM

3-(2-(3′-methoxyphenyl]-2-oxoethyl)-thiazolium bromide
Breaking Anti-AGE ([1]; at 10 mM): 22% | Breaking Anti-BSA ([1]; at 10 mM): 44%

Cc1csc[n+]1CC(=O)c1ccccc1.[Br-] [3-(2-phenyl-2-oxoethyl)-4-methylthiazolium bromide]
Breaking Anti-AGE ([1]; at 30 mM): 68% | Breaking Anti-BSA ([1]; at 30 mM): 66% | IC50 [2]: 5600 µM

Cc1c(CCOCc2c(Cl)cccc2Cl)sc[n+]1N.Cc1cc(C)c(S(=O)(=O)[O-])c(C)c1 [3-amino-4-methyl-5-(2(2′,6′-dichlorobenzyloxy)ethyl]-thiazolium mesitylenesulfonate]
Breaking Anti-AGE ([1]; at 10 mM): 31% | Breaking Anti-BSA ([1]; at 10 mM): 54% | Relative Cross-link Inhibition ([2]; 3 mM): 26.5% (3 mm)

Nc1ccc2c(c1)sc(N)[n+]2CC(=O)c1ccc(Br)cc1.[Br-] [2,6-diamino-3 (2-(4′-bromophenyl)-2-oxoethyl]benzothiazolium bromide]
Breaking Anti-AGE ([1]; at 10 mM): 27% | Breaking Anti-BSA ([1]; at 10 mM): 44%

CCCCN(CCCC)C(=O)C[n+]1csc(CCO)c1C.[Br-] [3-(2-Dibutylamino-2-oxoethyl]-4-methyl-5-(2′-hydroxyethyl)-thiazolium bromide]
Breaking Anti-AGE ([1]; at 10 mM): 25% | Breaking Anti-BSA ([1]; at 10 mM): 38% | inhibition at 10000 µM [2]: 0.8%

O=C(C[n+]1ccsc1)c1ccc(Br)cc1.[Br-] [3-(2-(4^1-bromophenyl]-2-oxoethyl)-thiazolium bromide]
Breaking Anti-AGE ([1]; at 30 mM): 76% | Breaking Anti-BSA ([1]; at 30 mM): 25%

Cc1c(CCO)sc[n+]1CC(=O)c1ccc(Br)cc1 [3-(2-(41-bromophenyl]-2-oxoethyl)-4-methyl-5-(2-hydroxyethyl)thiazolium bromide]
IC50 [2]: 2950 µM

Nc1sc2ccccc2[n+]1N [2,3-diaminio-benzothiazolium mesitylenesulfonate]
Breaking Anti-AGE ([1]; at 30 mM): 87% | Breaking Anti-BSA ([1]; at 30 mM): 54%

CC(C)(C)C(=O)C[n+]1ccsc1.[Br-] [3-(2-tert-butyl-2-oxoethyl)-thiazolium bromide]
Breaking Anti-AGE ([1]; at 10 mM): 28% | Breaking Anti-BSA ([1]; at 10 mM): 37%

Cc1c[n+](CC(=O)c2ccccc2)cs1 [3-(2-phenyl-2-oxoethyl)-5-methyl-thiazolium bromide]
IC50 [2]: 12600 µM

Cc1sc[n+](CC(=O)c2ccccc2)c1C.[Br-] [3-(2-phenyl-2-oxoethyl)-4,5-dimethylthiazolium bromide]
Breaking Anti-AGE ([1]; at 30 mM): 56%/ND (30) | inhibition at 10000 µM [2]: 37%

Cc1csc[n+]1CC(N)=O.[Br-] [3-(2-amino-2-oxoethyl)-4-methyl-thiazolium bromide]
Breaking Anti-AGE ([1]; at 30 mM): 89% | Breaking Anti-BSA ([1]; at 30 mM): 44% | IC50 [2]: 700 µM

Cc1c(CCO)sc[n+]1Cc1ccccc1.[Cl-] [3-benzyl-5-(2-hydroxyethyl)-4-methyl thiazolium chloride]
Breaking Anti-AGE ([1]; at 30 mM): 65% | Breaking Anti-BSA ([1]; at 30 mM): 61%

CC(=O)C[n+]1ccsc1.[Cl-] [3-(2-methyl-2-oxoethyl)thiazolium chloride]
IC50 ([1]; IC50 (mM) Anti-AGE, detection with anti-AGE antibody): 0.83 mM | IC50 ([1]; IC50 (mM) Anti-BSA, detection with anti-BSA antibody): 0.75 mM | Breaking Anti-AGE ([1]; concentration not given): 56% | Breaking Anti-BSA ([1]; concentration not given): 93%

Cc1sc[n+](CC(=O)c2cc(C(C)(C)C)c(O)c(C(C)(C)C)c2)c1C [3-(2-(3′,5′-di-tert-butyl-4′-hydroxypheny].)-2-oxoethyl]-4,5-dimethyl-thiazolium bromide]
IC50 [2]: 160 µM

Cc1cc(C)c(S(=O)(=O)[O-])c(C)c1.Nc1sc(-c2ccc3c(c2)OCCCO3)c[n+]1N [2,3-Diamino-5-(3′,4′-trimethylenedioxyphenyl)thiazolium mesitylene sulfonate]
Breaking Anti-AGE ([1]; at 1 mM): 13% | Breaking Anti-BSA ([1]; at 1 mM): 42%

CCCCCc1ccc(C(=O)C[n+]2csc(CCO)c2C)cc1.[Br-] [3-(2-(4′-n-pentylphenyl)-2-oxoethyl]-4-methyl-5-(2′-hydroxyethyl)-thiazolinium]
Relative Cross-link Inhibition ([2]; 3 mM): 52% @ 3 mM

O=C(C[n+]1ccsc1)c1ccc2c(c1)OCCCO2.[Br-] [3-(2-(3′,4′-trimethylenedioxyphenyl)-2-oxoethyl]-thiazolium bromide]
Breaking Anti-AGE ([1]; at 10 mM): 17% | Breaking Anti-BSA ([1]; at 10 mM): 18%

COc1cccc(C[n+]2csc(CCO)c2C)c1.[Cl-] [3-(3′-methoxybenzyl)-4-methyl-5-(2′-hydroxyethyl)-thiazolium chloride]
Breaking Anti-AGE ([1]; at 10 mM): 4% and 14% | Breaking Anti-BSA ([1]; at 10 mM): 19% and 25%

Cc1c(CCO)sc[n+]1Cc1c(Cl)cccc1Cl.[Cl-] [3-(2′,6′-dichlorobenzyl)-4-methyl-5-(2′-15 hydroxyethyl)-thiazolium chloride]
Breaking Anti-AGE ([1]; at 10 mM): 6% | Breaking Anti-BSA ([1]; at 10 mM): 27%

C=Cc1sc[n+](CC(=O)c2cc(C(C)(C)C)c(O)c(C(C)(C)C)c2)c1C [3-(2-(3′,5′-tert-butyl-4′-hydroxyphenyl)-2-oxoethyl)-4-methyl-5-vinyl-thiazolium bromide]
Breaking Anti-AGE ([1]; at 0.3 mM): 32% | Breaking Anti-BSA ([1]; at 0.3 mM): 50% | IC50 (mM) Anti-BSA ([1]; detection with anti-BSA antibody): ND/0/60%

Cc1c(CCO)sc[n+]1Cc1ccccc1[N+](=O)[O-].[Br-] [3-(2′-nitrobenzyl)-4-methyl-5-(2′-hydroxyethyl)-thiazolium bromide]
Breaking Anti-AGE ([1]; at 10 mM): 11% | Breaking Anti-BSA ([1]; at 10 mM): 13%

Nc1ccc2c(c1)sc(N)[n+]2CC(=O)c1ccc(F)cc1.[Br-] [2,6-diamino-3 (2-(4′-fluorophenyl-2-oxoethyl]benzothiazolium bromide]
Breaking Anti-AGE ([1]; at 10 mM): 24% | Breaking Anti-BSA ([1]; at 10 mM): 40%

NC(=O)C[n+]1ccsc1 [3-(2-amino-2-oxoethyl)-thiazolium bromide]
IC50 [2]: 530 µM

COc1ccc(C(=O)C[n+]2c(N)sc3cc(N)ccc32)cc1.[Br-] [2,6-diamino-3 (2-(4′-methoxyphenyl)-2-oxoethyl]benzothiazolium bromide]
Breaking Anti-AGE ([1]; at 10 mM): 29% | Breaking Anti-BSA ([1]; at 10 mM): 35%
